{
  "source": "patent US12605455B2",
  "about": "“CAR peptide for improved coronavirus survival” (Vascular Biosciences, priority 2020, dated 2026)",
  "key": {"hypertensive lungs": {"tested_on": "hypertensive lungs", "settings": "isolated perfused lung experiments (Toba et al. 2014); cited from earlier work"}, "[1]": {"settings": "CAR 3 mg/kg i.v. for 14 days"}, "[2]": {"test": "Safety pharmacology and TID 10-day rising-dose and multiple-dose tolerance study of CAR in rats", "format": "in vivo"}, "Irwin test in rats": {"test": "Irwin test in rats", "format": "in vivo"}, "[3]": {"test": "Two-month repeat administration of CAR to pigs", "format": "in vivo", "settings": "IV 3 mg/kg"}, "LPS model of sepsis": {"tested_on": "LPS model of sepsis", "test": "LPS model of sepsis, survival with sivelestat with or without CAR", "format": "in vivo", "source_text": "(§1) Thus, CAR could potentially adjuvant efficacy of other drugs against viral sepsis, including CAR in combination with sivelstat, as shown at lung (FIG. 9), liver (FIG. 10) and kidney (FIG. 11) samples."}, "[4]": {"tested_on": "endothelium of lung, liver and kidney", "test": "Scanning electron micrographs of lung, liver and kidney, sivelestat with or without CAR in septic animals", "format": "in vivo", "source_text": "Scanning electron micrographs of lung tissue from control, sivelestat alone, and CAR+sivelestat treated animals. The pulmonary vasculature is shown in the enlargement.\nScanning electron micrographs of liver tissue from control, sivelestat alone, and CAR+sivelestat treated animals. The fenestrated sinusoidal endothelium with clusters of fenestrations, or ‘sieve plates,’ are visible in the control liver vasculature.\nScanning electron micrographs of kidney tissue from control, sivelestat alone, and CAR+sivelestat treated animals. In the enlargement shown of the […] vasculature, the fenestrated glomerular endothelium surrounded by podocyte foot processes (red arrow). […] This is presumably due to activation of neutrophil elastase which leads to proteolytic degradation of critical extracellular matrix proteins. […] The activity of sivelestat's anti-elastase appears to be efficiently boosted by CAR's selective homing to the injured endothelial glycocalyx in the kidney.\nas §1"}, "SARS-CoV2 [5]": {"tested_on": "SARS-CoV2", "format": "in vivo, K18-hACE2 transgenic mice", "settings": "HCT 0.2 mg/kg/dose via IT installation every 24 hours: free, liposome encapsulated or CAR-liposome encapsulated"}, "[6]": {"tested_on": "endothelium and endothelial glycocalyx of kidney, lung and liver", "test": "Ultrastructural analysis (scanning electron microscopy) of endothelium and endothelial glycocalyx after LPS", "format": "in vivo", "settings": "mice 48 hours after LPS; hydrocortisone 0.2 mg/kg with or without CAR", "procedure": "Capillaries of the kidney are fenestrated capillaries which have small holes at endothelial cells. The destruction of this structure was 48 hours after LPS injection. Then, the endothelial wall became edematous and there was deposited fibrin on it. Capillaries of the lung are continuous type of capillaries. Although the vascular endothelium of the lung is thinner at the edges of the nucleus, edema occurred and vascular endothelial structure was impaired 48 hours after LPS injection. Capillaries of the liver are sinusoids which have a lot of large […] gap in normal capillaries. 48 hours after LPS administration, these structures have already broken the edematous of the vascular endothelium and deposited fibrin.\nThe endothelial glycocalyx (GCX) of the apical endothelial surface of each organ can by visualized using scanning electron microscopy (SEM) to assess GCX appearance and structure. GCX was largely denuded in the untreated sepsis group but the GXX damage was attenuated when CAR is co-administered with low-HCT.\nMice were sacrificed at 48 hours after LPS administration, and kidney, lung and liver were obtained to create frozen fracture freeze-dried samples to detect endothelial changes with electron microscopy. The specimens were examined under a scanning electron microscope (S-4500, Hitachi). […]"}, "SARS-CoV2 [7]": {"tested_on": "SARS-CoV2", "format": "in vivo, K18-hACE2 transgenic mice", "settings": "hydrocortisone 0.2 mg/kg ip every 6 hours, alone or with CAR 8 mg/kg ip"}, "LPS-induced endotoxemia": {"tested_on": "LPS-induced endotoxemia", "test": "Survival after LPS-endotoxemia, hydrocortisone with or without CAR", "format": "in vivo, mice", "settings": "for survival rate 48 hours after LPS: C57BL/6 male mice, LPS 20 mg/kg IP", "procedure": "10-week-old C57BL/6 male mice were given an intraperitoneal (IP) injection of Escherichia coli 055:B5 LPS 20 mg/kg. Mice were injected i.p. with 20 mg/kg lipopolysaccharide (LPS). Five different treatments were initiated: saline only group (Untreated, n=31); CAR peptide-alone administration 20 mg/kg ([…]) (CAR alone, n=20); hydrocortisone 0.2 mg/kg or 10 mg/kg Low-HCT or High-HCT, n=20, 28 respectively); and CAR 20 mg/kg co-administered with hydrocortisone 0.2 mg/kg (Low HCT+CAR, n=20). Hydrocortisone and/or CAR peptide were injected intraperitoneally at 3, 12 and 24 hours after LPS administration."}, "CLP sepsis": {"tested_on": "CLP sepsis", "test": "Cecal ligation and puncture (2CLP) rat model of sepsis, hydrocortisone with or without CAR", "format": "in vivo, rats", "procedure": "At 40 hours, 4 of the 5 rats in the HCT+CAR group survived while none of the rats in either the HCT group nor the sepsis group survived for 40 hours (n=5 in each group) (Log-rank P=0.008).\n8-10 week-old male Sprague Dawley rats were exposed to CLP. Rats were randomized (n=5/group) to saline, hydrocortisone (0.2 mg/kg IV), or CAR (3 mg/kg IV)+HCT. Treatments were initiated 12 hours after surgery, and given every 12 hours afterwards until death, for a maximum of 5 days. Rats were treated with fluid resuscitation but not with antibiotics in this model. Survival was highest in the CAR+HCT group (FIG. 6) (Log-rank P=0.008) and the median Ang2/Ang1 ratio was lower in CAR+HCT than the hydrocortisone group (0.60 vs 1.69, p=0.06)."}, "SARS-CoV2 [8]": {"tested_on": "SARS-CoV2", "format": "in vivo, K18-hACE2 transgenic mice", "settings": "HCT 0.2 mg/kg/dose iv every 12 hours: free, liposome encapsulated or CAR-liposome"}, "[9]": {"settings": "sivelestat 0.5 mg/kg or sivelestat 0.5 mg/kg + CAR"}},
  "note": "Read-outs that look alike come from different tables or passages of the source. Bridge positions count the residues as written; N and C are the ends. Peptide text beside a SMILES is read from it.",
  "data": [
    {"compound": "C[C@@H]1NC(=O)[C@@H](N)CSSC[C@@H](C(=O)O)NC(=O)[C@H](CC(=O)O)NC(=O)[C@H](CCCCN)NC(=O)[C@H](CC(N)=O)NC(=O)[C@H](CCCCN)NC(=O)[C@H](CO)NC(=O)[C@H](CCCNC(=N)N)NC1=O", "note": "[CAR, CARSKNKDC] (H-CARSKNKDC-OH; disulfide 1-9; N-terminus and C-terminus assumed)", "values": [
      {"measurement": "concentration of the co-administered drug in the diseased lung", "setting": "hypertensive lungs", "result": "doubling"},
      {"measurement": "Creatinine", "setting": "[1]; healthy adult Sprague-Dawley rats", "result": "0.45 ± 0.02", "unit": "mg/dL"},
      {"measurement": "ALP", "setting": "[1]; healthy rats", "result": "170 ± 18", "unit": "U/L"},
      {"measurement": "AST", "setting": "[1]; healthy rats", "result": "141 ± 31", "unit": "U/L"},
      {"measurement": "BUN", "setting": "[1]; healthy rats", "result": "17 ± 1", "unit": "mg/dL"},
      {"measurement": "Glucose", "setting": "[1]; healthy rats", "result": "213 ± 5"},
      {"measurement": "Hb", "setting": "[1]; healthy rats", "result": "12.8 ± 0.2", "unit": "g/dL"},
      {"measurement": "Tbili", "setting": "[1]; healthy rats", "result": "0.10 ± 0.04", "unit": "mg/dL"},
      {"measurement": "Wbc", "setting": "[1]; healthy rats", "result": "4.0 ± 0.7 ×1000/μL"},
      {"measurement": "impact on blood renal function, hepatic function, hematologic tests and glucose hemostasis", "setting": "[1]; healthy rats", "result": "no impact"},
      {"measurement": "mortality, clinical observations, hematology, coagulation, clinical chemistry", "setting": "[2]; TID 10-day rising-dose and multiple-dose, up to highest dose 20 mg/kg IV", "result": "no mortality, adverse clinical observations, and no aberrations in hematology, coagulation or clinical chemistry"},
      {"measurement": "adverse effects on vital physiological systems (safety pharmacology)", "setting": "[2]; up to the highest levels of CAR tested", "result": "no adverse effects"},
      {"measurement": "adverse effects on behavior and physiological function", "setting": "Irwin test in rats", "result": "no adverse effects"},
      {"measurement": "immunological effects or signs of toxicity", "setting": "[3]", "result": "no immunological effects or signs of toxicity"}
    ]},
    {"compound": "CC(C)(C)C(=O)Oc1ccc(S(=O)(=O)Nc2ccccc2C(=O)NCC(=O)O)cc1", "note": "[Sivelestat, sivelestat]", "values": [
      {"measurement": "Survival Rate (%) 12 h", "setting": "LPS model of sepsis; sivelestat 0.5 mg/kg (n=20) or sivelestat 0.5 mg/kg + CAR (n=18)", "result": 100, "unit": "%"},
      {"measurement": "Survival Rate (%) 24 h", "setting": "LPS model of sepsis; [9]", "result": 85, "unit": "%"},
      {"measurement": "Survival Rate (%) 36 h", "setting": "LPS model of sepsis; [9]", "result": 60, "unit": "%"},
      {"measurement": "Survival Rate (%) 48 h", "setting": "LPS model of sepsis; [9]", "result": 50, "unit": "%"},
      {"measurement": "glomerular endothelium fenestrations, SEM kidney images", "setting": "[4]", "result": "fenestrations are absent and gross tissue damage is apparent"},
      {"measurement": "liver sinusoidal endothelium sieve plates, SEM liver images", "setting": "[4]", "result": "not able to prevent defenestration of sieve plates"},
      {"measurement": "pulmonary arteriole endothelium, SEM lung images", "setting": "[4]", "result": "did not prevent degradation of the continuous pulmonary arteriole endothelium"}
    ]},
    {"compound": "C[C@]12CCC(=O)C=C1CC[C@@H]1[C@@H]2[C@@H](O)C[C@@]2(C)[C@H]1CC[C@]2(O)C(=O)CO", "note": "[HCT, hydrocortisone]", "values": [
      {"measurement": "survival at 7 dpi", "setting": "SARS-CoV2 [5]", "result": "some improvements in survival"},
      {"measurement": "endothelial ultrastructure of kidney, lung and liver capillaries", "setting": "[6]", "result": "no beneficial effect for septic endothelial disorders"},
      {"measurement": "survival at 7 dpi", "setting": "SARS-CoV2 [7]", "result": "some improvements in survival"},
      {"measurement": "survival rate 48 hours after LPS", "setting": "LPS-induced endotoxemia; hydrocortisone 0.2 mg/kg alone or with CAR 20 mg/kg, IP at 3, 12 and 24 hours", "result": 30, "unit": "%"},
      {"measurement": "survival rate 48 hours after LPS", "setting": "LPS-induced endotoxemia; hydrocortisone 10 mg/kg (High-HCT) IP at 3, 12 and 24 hours", "result": 57, "unit": "%"},
      {"measurement": "survival difference versus untreated sepsis 48 hours after LPS", "setting": "LPS-induced endotoxemia; CAR alone 20 mg/kg, hydrocortisone 0.2 mg/kg (Low-HCT)", "result": "no significant survival difference"},
      {"measurement": "rats surviving at 40 hours", "setting": "CLP sepsis; 2CLP rats, n=5 in each group, hydrocortisone 0.2 mg/kg IV with or without CAR 3 mg/kg IV every 12 hours from 12 hours after surgery", "result": "none"},
      {"measurement": "hyperglycemia", "setting": "CLP sepsis; CLP rats", "result": "hyperglycemia observed"},
      {"measurement": "median Ang2/Ang1 ratio", "setting": "CLP sepsis; CLP rats, p=0.06", "result": 1.69},
      {"measurement": "survival at 7 dpi", "setting": "SARS-CoV2 [8]", "result": "some improvements in survival"}
    ]}
  ]
}
